Here are results for one substance from patent US8022036B2, “Use of thymosin alpha 1 for the treatment of immunological diseases” (Sigma-Tau Industrie Farmaceutiche Riunite S.p.A., priority 2006, dated 2011).

The subject of test [1] is A. fumigatus. As to the kind of experiment: Aspergillosis in experimental HSCT after adoptive transfer of fungus-pulsed DCs. It counts as in vivo, mouse. As for the experimental part: Human peripheral blood mononuclear cells were obtained from healthy donors and seven recipients of T-cell depleted haploidentical HSCT, upon written informed consent. Donor typing, engraftment and GVHD were assessed as described (Blood. 2005; 106; 4397-4406). Experimental HSCT model Lethally irradiated (8 Gy) C57BL6 mice were infused with T cell-depleted bone marrow cells from BALB/c mice (Blood. 2003; 102:3807-3814). For GVHD, purified donor CD3+ T splenocytes were added to the graft (Science. 2002; 295:2097-2100). Individual mice were graded weekly from 0-2 for each GVHD criterion (see legend to FIG. 3) without knowledge of treatment group.
The strain of A. fumigatus, the culture conditions and infection were as described in Blood. 2004; 103:4232-4239. Mice were anesthetized with 2.5% avertin (Sigma Chemical Co, St. Louis, Mo.). Quantification of fungal growth in the lungs was done by the chitin assay and results are expressed as micrograms of glucosamine per pair of lungs, and PAS staining was done as described in Blood. 2004; 103:4232-4239.
(§1) Mice received twice intraperitoneal injections of DCs, at weekly interval, starting a day after HSCT and infected a week after the last DC administration. Three days later, lung homogenates, CD4+ T cells (>98% on FACS analysis), CD4+CD25− (>98%) or CD4+CD25+ (>82%) purified with the specific Miltenyi Biotec isolation kits were assessed for pattern of pro- and anti-inflammatory (TNF-a/IL-10 in lung homogenates), Th1 (IFN-γ) or Th2 (IL-4) cytokine production by CD4+ cells stimulated with Aspergillus-pulsed DCs (Blood. 2003; 102:3807-3814) frequency of CD25+ IL-10^+ TGF-β+ T reg cells, lymphoproliferation and gene expression by RT-PCR. For proliferation, TLN CD4+ T lymphocytes were plated (10^5 cells/well) with 10^5 cells/well irradiated allogeneic splenocytes or autologous spDCs pulsed with conidia or 10 μg/mL Con A for five days before H^3-thymidine labeling.
Lethally irradiated C57BL/6 mice received=2×10^6 T cell-depleted allogeneic bone marrow cells from BALB/c mice 2 wk before the intratracheal injection of 2×10^8/80 μl saline Aspergillus conidia. One and seven days after transplantation, mice received Aspergillus-pulsed GM- or FL-DCs grown in Thymosin alpha 1, intraperitoneally.
Resistance to infection was assessed in terms of MST (median survival time in days) and fungal growth in the lung ([…] glucosamine content, bars indicating standard errors) 3 days after infection or at the time of death (A). […] The degree of systemic GVHD was assessed by a scoring system that sums changes in five clinical parameters: weight loss, posture (hunching), activity, fur texture, and skin integrity (maximum index=10). […]

The test system of test [2] is lung homogenates, TLN CD4+ T cells. Kind of test: Inflammatory/Th/T reg responses in lung and TLN of infected HSCT mice given DCs (ELISA, ELISPOT, RT-PCR, flow cytometry). Format: in vivo, mouse. As for the experimental part: as §1
RNA extraction, synthesis and PCR of cDNA, sequences of gene-specific primers, annealing temperatures and amplification cycles were done as described in J. Immunol. 2006; 176:1712-1723). Amplification efficiencies were validated and normalized against GAPDH.
(A) TNF-a/IL-10 levels were assessed by specific ELISA in lung homogenates and IFN-γ/IL-4 production were assessed in TLN CD4+ T cells cocultured with Aspergillus-pulsed DCs. Bars indicate standard errors. TLN CD4+CD25+ T cells producing IL-10 or TGF-β were numbered by ELISPOT assay. Results are expressed as the mean number of cytokine-producing cells (±SE) per 2×10^5 cells. *P<0.05, DC-treated versus untreated mice. (**) P<0.05, Thymosin alpha 1-treated DCs versus untreated DCs.
(B) Total RNA was extracted from freshly purified CD4+ T cells from TLN of treated or untreated (None) mice. The expressions of the different mRNAs in each cell population were determined by RT-PCR. The expression of a housekeeping gene, Gapdh mRNA, was used as an internal control. The data shown are representative results of three experiments.
(C) Phenotypic analysis of cells isolated from lung or TLN of mice infused or not (None) with different types of DCs, (−) indicating uninfected, untreated mice. CD4+ T cells were sequentially reacted with PE-conjugated anti-CD25 (PC61) and FITC-conjugated anti-CD69 (clone H1.2F3) mAbs. Numbers represent the percentage of positive cells over total cells analyzed. Control staining of cells with irrelevant Ab was used to obtain background fluorescence values. Histograms are representative of one out of four independent experiments.
Background: An ELISA detects its analyte on a solid surface through an enzyme-linked reagent.

The mark [3] stands for this setting: mice given Thymosin alpha 1-treated GM-DCs.

No end group written: not given here.

For “Thymosin alpha 1: naturally occurring thymic peptide; supplied as purified, endotoxin-free sterile lyophilized acetylated polypeptide from SciClone Pharmaceuticals (Ac-SDAAVDTSSEITTKDLKEKKEVVEEAEN; UniProt P06454 2-29, looked up)”, the “survival to infection in the presence of donor T cells” value in test [1] (donor T cells plus Thymosin alpha 1-treated GM-DCs) is listed as “survived infection”. The “local inflammatory cell recruitment and reaction in the lungs (histopathology)” value in test [1] (mice infused with Thymosin alpha 1-treated GM-DCs, 3 days after infection) is “few healing infiltrates of inflammatory cells with no evidence of bronchial wall damage and inflammatory response and low”. Further, in test [1] (transfer of Thymosin alpha 1-treated FL-DCs), the “vaccinating potential of FL-DCs” value is “would not affect the vaccinating potential of FL-DCs”. In addition, the “protection from aspergillosis (survival, fungal growth)” value in test [1] (transfer of Thymosin alpha 1-treated GM-DCs, intraperitoneally) was “complete protection”. The “compartmentalization of induced T reg (lungs vs TLN), FL-DCs” value in test [2] (Thymosin alpha 1-treated FL-DCs) was “the opposite was true”. The “TNF-a/IL-10 production in lung homogenates” value in test [2] (Thymosin alpha 1-treated GM-DCs, compared with TNF-a high, IL-10 low in untreated or GM-DC mice) was “the reverse being true”. Also, the “compartmentalization of induced T reg (lungs vs TLN), GM-DCs” value in test [2] (Thymosin alpha 1 treated GM-DCs) is listed as “induced T reg in the lungs more than TLN”. In addition, in test [2] (setting [3]), the “CD62L marker on CD25+ T cells” value is given as “stained positive”, the “Foxp3 mRNA in TLN CD4+ T cells (RT-PCR)” value was “expressed”, the “IFN-γ production by TLN CD4+ T cells” value is “higher” and the “IL-4 production by TLN CD4+ T cells” value was “lower”. Further, the “CD69 activation marker on CD4+CD25+ T cells” value in test [2] (mice given Thymosin alpha 1-treated GM-DCs or FL-DCs) was “did not stain positive”.
